For this assay, the species on record is Bos taurus. Nature of the assay: Inhibition of calf thymus topoisomerase 1 relative to Hoechst 33342.

Turning to `Cc1ccc(-c2nc3cc(-c4nc5cc(C#N)ccc5[nH]4)ccc3[nH]2)cc1`, the Ratio is 1.
In the case of `N#Cc1ccc2[nH]c(-c3ccc4[nH]c(-c5ccc6ccccc6c5)nc4c3)nc2c1` it was 10.
For the compound `COc1ccc(-c2ccc3[nH]c(-c4ccc5nc[nH]c5c4)nc3c2)cc1`, the Ratio turned out to be 1.
In the case of `COc1ccc(-c2nc3cc(-c4nc5cc([N+](=O)[O-])ccc5[nH]4)ccc3[nH]2)cc1` it was 1000.

(Values after ChEMBL document CHEMBL1671799, “Modelling topoisomerase I inhibition by minor groove binders” (Bioorg Med Chem, 2011).)
